Counter-ions that a name gives are not always drawn.

For 23 molecules, EC50 and Ki results are on record in US10501421B1, “Substituted benzimidazoles as modulators of Ras signaling” (VANDERBILT UNIVERSITY, priority 2017, dated 2019).

Assay [1] addresses Ras GEF SOS (Son of Sevenless) (Homo sapiens, UniProt Q07889). Nature of the assay: SOS-mediated nucleotide exchange on Ras (BODIPY-GDP fluorescence). Particulars: SOS-mediated exchange of BODIPY-GDP for GTP on Ras. The format is biochemical. The method in brief:
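Ras loaded with BODIPY-GDP was mixed in buffer with test compound, then GTP and SOS. Fluorescence change from labeled GDP/GTP exchange was followed over time, and rates came from single-exponential fits. EC50 came from a four-parameter fit of mean rate against compound concentration.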

Assay [2] has as its target T1, Son of Sevenless (SOS) (Homo sapiens, UniProt Q07889).
T1 sequence (Q07889 564-1049 limits assumed): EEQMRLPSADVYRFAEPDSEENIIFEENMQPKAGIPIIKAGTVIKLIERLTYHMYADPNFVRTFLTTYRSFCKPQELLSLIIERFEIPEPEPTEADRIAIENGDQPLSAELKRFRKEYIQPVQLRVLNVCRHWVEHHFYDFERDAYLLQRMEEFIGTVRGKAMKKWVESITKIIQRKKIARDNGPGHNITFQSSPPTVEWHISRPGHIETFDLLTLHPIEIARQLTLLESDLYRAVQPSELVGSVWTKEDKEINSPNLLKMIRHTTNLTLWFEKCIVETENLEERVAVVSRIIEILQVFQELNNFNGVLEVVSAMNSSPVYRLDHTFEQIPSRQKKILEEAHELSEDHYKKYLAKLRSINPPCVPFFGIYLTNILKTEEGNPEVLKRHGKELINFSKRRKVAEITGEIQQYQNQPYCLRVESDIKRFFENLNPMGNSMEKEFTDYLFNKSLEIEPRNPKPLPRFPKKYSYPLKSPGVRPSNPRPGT
Description: Binding to SOS, fluorescence polarization anisotropy (FPA) probe displacement. Particulars: displacement of FITC-conjugated probe (Example 285), affinity calculated from IC50. As to the method: Compounds of the present invention were tested for their ability to bind to the Ras guanine exchange factor (GEF) Son of Sevenless (SOS). Binding to SOS was measured using a Fluorescence polarization anisotropy (FPA) assay that assesses the ability of a test compound to displace a fluorescent FITC-conjugated compound (Example 285). Briefly, the labeled probe compound is incubated with SOS in buffer. Changes in anisotropy indicative of displacement of the labeled probe for a test compound are assessed over a dose range of test compound. Data was analyzed by plotting fluorescence anisotropy values as a function of compound concentration. IC50 values were determined using a four-parameter dose-response (variable slope) and binding affinities were calculated from this IC50 value. This assay is performed in a method analogous to the assay disclosed in: Burns, M. C.; Sun, Q.; Daniels, R. N.; Camper, D. V.; Kennedy, J. P.; Phan, J.; Olejniczak, E. O.; Lee, T.; Waterson, A. G.; Rossanese, O. W.; Fesik, S. W. “Approach for targeting Ras with small molecules that activate SOS-mediated nucleotide exchange” Proc. Natl. Acad. Sci. 2014; 11(9): 3401-3406. PMCID: PMC3948241.

Chain of Ras GEF SOS (Son of Sevenless) (P01112 1-166 partner limits assumed, one chain of several): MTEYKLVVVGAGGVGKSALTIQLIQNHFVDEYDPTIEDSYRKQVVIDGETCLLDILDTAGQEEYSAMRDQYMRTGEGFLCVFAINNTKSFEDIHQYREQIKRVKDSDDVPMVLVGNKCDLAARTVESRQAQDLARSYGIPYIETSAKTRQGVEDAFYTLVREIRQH

As a reminder, the EC50 is the concentration at which the effect is half-maximal. High values mean lower potency in that assay, low ones higher potency in that assay. One may read the Ki as a measure of affinity in units of concentration, obtained from inhibition or displacement. As for `Cc1cc(Cn2c(N3CCNCC3)nc3c(N4CCC(N)CC4)cc(Cl)cc32)cc(C)c1F` [Example 319, 1-(6-chloro-1-(4-fluoro-3,5-dimethylbenzyl)-2-(piperazin-1-yl)-1H-benzo[d]imidazol-4-yl)piperidin-4-amine], in assay [1], the EC50 is below 1000 nM. The Ki in assay [2] was below 500 nM.
The molecule `Cc1cc2c(nc(N3CCNCC3)n2Cc2ccc(F)c(Cl)c2)c(-c2ccnn2-c2ccc(C(C)C)cc2)c1C` [Example 173, 1-(3-chloro-4-fluorobenzyl)-4-(1-(4-isopropylphenyl)-1H-pyrazol-5-yl)-5,6-dimethyl-2-(piperazin-1-yl)-1H-benzo[d]imidazole trifluoroacetate] returned an EC50 in assay [1] of 5000 to 30000 nM. In addition, in assay [2], the Ki was above 5000 nM.
For `Cc1cc(N2CCNCC2)c2nc(N3CCNCC3)n(Cc3cc(C)c(F)c(C)c3)c2c1` [Example 190, 1-(4-fluoro-3,5-dimethylbenzyl)-6-methyl-2,4-di(piperazin-1-yl)-1H-benzo[d]imidazole trifluoroacetate], in that order: below 1000 nM and 500 to 1000 nM.
The matching figures for `Cc1cc(Cn2c(N3CCNCC3)nc3c(N4CCCCC4)cc(Cl)cc32)cc(C)c1F` [Example 297, 6-chloro-1-(4-fluoro-3,5-dimethylbenzyl)-2-(piperazin-1-yl)-4-(piperidin-1-yl)-1H-benzo[d]imidazole]: 1000 to 5000 nM and below 500 nM.
`CN(C)CCn1nccc1-c1cc(Cl)cc2c1nc(N1CCNCC1)n2Cc1ccc(F)c(Cl)c1` [Example 175, 2-(5-(6-chloro-1-(3-chloro-4-fluorobenzyl)-2-(piperazin-1-yl)-1H-benzo[d]imidazol-4-yl)-1H-pyrazol-1-yl)-N,N-dimethylethan-1-amine trifluoroacetate]: the 50% effective concentration (EC50) in assay [1] was below 1000 nM. In addition, the Ki in assay [2] is 500 to 1000 nM.
`Nc1ccccc1-c1cccc2c1nc(N1CCNCC1)n2Cc1ccc(F)c(Cl)c1` [Example 83, 2-(1-(3-chloro-4-fluorobenzyl)-2-(piperazin-1-yl)-1H-benzo[d]imidazol-4-yl)aniline trifluoroacetate]: the concentration giving a half-maximal response (EC50) in assay [1] was in the range of 1000 to 5000 nM. Also, in assay [2], the Ki was 1000 to 5000 nM.
In the case of `Cc1cc(OCCN2CCN(C)CC2)c2nc(N3CCNCC3)n(Cc3cc(C)c(F)c(C)c3)c2c1` [Example 201, 1-(4-fluoro-3,5-dimethylbenzyl)-6-methyl-4-(2-(4-methylpiperazin-1-yl)ethoxy)-2-(piperazin-1-yl)-1H-benzo[d]imidazole], the concentration giving a half-maximal response (EC50) in assay [1] is below 1000 nM. For the same molecule, the inhibitory constant (Ki) in assay [2] was 500 to 1000 nM.
For `Cc1cc(Cn2c(N3CCNCC3)nc3c(OC4CCN(C)CC4)cccc32)ccc1F` [Example 205, 1-(4-fluoro-3-methylbenzyl)-4-((1-methylpiperidin-4-yl)oxy)-2-(piperazin-1-yl)-1H-benzo[d]imidazole], in that order: below 1000 nM and 1000 to 5000 nM.
For `Cc1cc(Cn2c(NCC3CNC3)nc3c(N4CCNCC4)cc(Cl)cc32)cc(C)c1F` [Example 309, N-(azetidin-3-ylmethyl)-6-chloro-1-(4-fluoro-3,5-dimethylbenzyl)-4-(piperazin-1-yl)-1H-benzo[d]imidazol-2-amine], in that order: 1000 to 5000 nM and below 500 nM.
The matching figures for `Cc1cc2c(nc(N3CCNCC3)n2Cc2ccc(F)c(C)c2)c(CNC(C)C)n1` [Example 233, N-((1-(4-fluoro-3-methylbenzyl)-6-methyl-2-(piperazin-1-yl)-1H-imidazo[4,5-c]pyridin-4-yl)methyl)propan-2-amine]: 5000 to 30000 nM and above 5000 nM.
Turning to `Cc1cc2nc(NCCN)n(Cc3cc(C)c(F)c(C)c3)c2cc1C` [Example 42, N^1-(1-(4-fluoro-3,5-dimethylbenzyl)-5,6-dimethyl-1H-benzo[d]imidazol-2-yl)ethane-1,2-diamine trifluoroacetate], the EC50 in assay [1] lay within 1000 to 5000 nM. For the same molecule, the inhibition constant (Ki) in assay [2] is 1000 to 5000 nM.
`Cc1cc(OCC2CCNCC2)c2nc(NCCN)n(Cc3cc(C)c(F)c(C)c3)c2c1` [Example 330, N^1-(1-(4-fluoro-3,5-dimethylbenzyl)-6-methyl-4-(piperidin-4-ylmethoxy)-1H-benzo[d]imidazol-2-yl)ethane-1,2-diamine] displayed an EC50 in assay [1] below 1000 nM. For the same molecule, the inhibition constant (Ki) in assay [2] is 500 to 1000 nM.
The matching figures for `CNCCN(C)c1nc2cc(C)c(C)cc2n1Cc1cc(C)c(F)c(C)c1` [Example 45, N^1-(1-(4-fluoro-3,5-dimethylbenzyl)-5,6-dimethyl-1H-benzo[d]imidazol-2-yl)-N^1,N^2-dimethylethane-1,2-diamine trifluoroacetate]: 5000 to 30000 nM and above 5000 nM.
The matching figures for `C=C[C@@H](N)c1cc(C)cc2c1nc(N1CCNCC1)n2Cc1cc(C)c(F)c(C)c1` [Example 163, (R)-1-(1-(4-fluoro-3,5-dimethylbenzyl)-6-methyl-2-(piperazin-1-yl)-1H-benzo[d]imidazol-4-yl)prop-2-en-1-amine trifluoroacetate]: 1000 to 5000 nM and 500 to 1000 nM.
The matching figures for `Cc1cc2nc(N3CCNCC3)n(Cc3ccc(Br)c(Cl)c3)c2cc1C` [Example 39, 1-(4-bromo-3-chlorobenzyl)-5,6-dimethyl-2-(piperazin-1-yl)-1H-benzo[d]imidazole trifluoroacetate]: 1000 to 5000 nM and above 5000 nM.
Molecule `Cc1cc(Cn2c(N3CCNCC3)nc3c(N4CCOCC4)cc(Cl)cc32)cc(C)c1F` [Example 312, 4-(6-chloro-1-(4-fluoro-3,5-dimethylbenzyl)-2-(piperazin-1-yl)-1H-benzo[d]imidazol-4-yl)morpholine] showed a 50% effective concentration (EC50) in assay [1] below 1000 nM. Besides, the Ki in assay [2] is below 500 nM.
The matching figures for `Cc1cc(OC2CCOC2)c2nc(N3CCNCC3)n(Cc3cc(C)c(F)c(C)c3)c2c1` (stereo not shown) [Example 204, 1-(4-fluoro-3,5-dimethylbenzyl)-6-methyl-2-(piperazin-1-yl)-4-((tetrahydrofuran-3-yl)oxy)-1H-benzo[d]imidazole]: below 1000 nM and 1000 to 5000 nM.
For `NCCNCc1cc(Cl)cc2c1nc(N1CCNCC1)n2Cc1ccc(F)c(Cl)c1` [Example 137, N^1-((6-chloro-1-(3-chloro-4-fluorobenzyl)-2-(piperazin-1-yl)-1H-benzo[d]imidazol-4-yl)methyl)ethane-1,2-diamine trifluoroacetate], in that order: 1000 to 5000 nM and 1000 to 5000 nM.
The matching figures for `Cc1ccccc1C#Cc1ccccc1-c1cc(Cl)cc2c1nc(N1CCNCC1)n2Cc1cc(C)c(F)c(C)c1` [Example 185, 6-chloro-1-(4-fluoro-3,5-dimethylbenzyl)-2-(piperazin-1-yl)-4-(2-(o-tolylethynyl)phenyl)-1H-benzo[d]imidazole trifluoroacetate]: 5000 to 30000 nM and above 5000 nM.
For the molecule `Cc1cc2c(nc(N3CC(CN)C3)n2Cc2ccc(F)c(C)c2)c(-c2ccccc2F)n1` [Example 216, (1-(1-(4-fluoro-3-methylbenzyl)-4-(2-fluorophenyl)-6-methyl-1H-imidazo[4,5-c]pyridin-2-yl)azetidin-3-yl)methanamine], in assay [1], the EC50 is below 1000 nM. In assay [2], the inhibitory constant (Ki) is 500 to 1000 nM.
For `Cc1cc(Cn2c(NCCN)nc3c([C@@H](N)c4ccccc4)cc(Cl)cc32)cc(C)c1F` [Example 160, (S)—N^1-(4-(amino(phenyl)methyl)-6-chloro-1-(4-fluoro-3,5-dimethylbenzyl)-1H-benzo[d]imidazol-2-yl)ethane-1,2-diamine trifluoroacetate], in that order: 1000 to 5000 nM and below 500 nM.
The matching figures for `Cc1cc2c(nc(N3CCNCC3)n2Cc2ccc(F)c(C)c2)c(CNCCC(C)C)n1` [Example 234, N-((1-(4-fluoro-3-methylbenzyl)-6-methyl-2-(piperazin-1-yl)-1H-imidazo[4,5-c]pyridin-4-yl)methyl)-3-methylbutan-1-amine]: 5000 to 30000 nM and above 5000 nM.
For `COc1ccc(-n2nccc2-c2cc(Cl)cc3c2nc(N2CCNCC2)n3Cc2ccc(F)c(Cl)c2)cc1` [Example 168, 6-chloro-1-(3-chloro-4-fluorobenzyl)-4-(1-(4-methoxyphenyl)-1H-pyrazol-5-yl)-2-(piperazin-1-yl)-1H-benzo[d]imidazole trifluoroacetate], in that order: 1000 to 5000 nM and 500 to 1000 nM.
